Measurements: patent US20230414657A1, “Novel compositions for neutralizing toxic effects of hydrogen peroxide in living cells or tissues” (Dzala LLC, priority 2020, published 2023)

Assays:
C. elegans [1] = experiment: Oxygen consumption rate (OCR), Seahorse XFe96; format: in vivo; conditions: H2O2 alone (100 mM)
Description: Oxygen consumption of worms was measured with a Seahorse XFe96 system (Seahorse Bioscience, North Billerica, MA), as previously described^4. L3 larvae of the different strains were grown on plates or in liquid culture and supplemented for 2-4 days as described for each experiment. After removing bacteria and debris, approximately 100 worms were pipetted into each well of a 96-well Seahorse XF^e assay plate and OCR was measured until it stabilized. Then, 3 subsequent measurements were made at 6.5-min intervals. Finally, the exact number of worms in each well was counted and used for normalization. A small number of abnormal readings were also filtered out at this stage. On average, 7-8 wells (technical replicates) were used for each condition. Normalized OCR values were averaged for the last 3 measurements for each strain and condition. Four biological replicates were analyzed for each condition.

C. elegans [2] = experiment: Growth rate / worm size; format: in vivo; conditions: H2O2 alone (100 mM)
Description: Synchronized L1 worms were incubated at 15° C. on plates or in liquid culture and exposed to different conditions as indicated. Single worms were selected randomly from the plates or aliquots were taken from the liquid cultures and added to NGM plates for immediate visualization. 25 worms per treatment were measured at 24-48 hr intervals and all growth curves were done four times.

C. elegans [3] = system: C. elegans
Description: A population of synchronized L1 larvae was added to 30-ml glass tubes containing 2.5 ml of S-complete medium (liquid culture)^2 and NA22 or induced RNAi bacteria at an OD600 of 1.9. […] Worms were incubated at 15° C. and 150 rpm in a shaking incubator for 2-6 days, refreshing the medium every 2 days.
Briefly, for the treatment during larval development worms were incubated in liquid culture under different conditions from L1 until L4, and then transferred onto control NGM plates until death. During the reproductive period (days 1-8), worms were transferred to fresh plates every other day to separate them from their progeny. […] Worms that were missing, displaying internal egg hatching, losing vulva integrity, and burrowing into NGM agar were censored. Progeny number and embryonic lethality was determined the day after transferring the adult animals to fresh plates. Statistical analyses of lifespan were calculated by Log-rank (Mantel-Cox) tests on the Kaplan-Meier curves in GraphPad Prism. For progeny number and embryonic lethality, the significance of differences between conditions was determined using an unpaired t-test in GraphPadPrism 8.0. All experiments were performed in triplicate.

C. elegans [4] = experiment: Quantification of glutathione (GSH/GSSG-Glo); format: in vivo
Description: Sample preparation was performed as described previously with some modifications^6. From each condition 10,000 synchronized animals were harvested and washed 3 times with sterile water. […] To thoroughly lyse the worms, 5 cycles of freezing and thawing were performed in a water bath at 37° C., followed by a 1-min sonication. The samples were then centrifuged and the supernatant tested for protein estimation and GSH quantification. Total GSH, GSSG, and GSH/GSSG ratios were quantified using the GSH/GSSG-Glo assay kit (Promega) following the instructions of the manufacturer. Briefly, each sample was tested in triplicate in 96-well culture plates with total glutathione or GSSG lysis reagent, for total glutathione or GSSG measurement, respectively. The GSH probe, luciferin-NT, was converted to luciferin, which is coupled to a firefly luciferase. The plates were then read in an […] plate reader (Perkin Elmer, United States). The GSSG value was subtracted from the total glutathione to calculate GSH levels and GSH/GSSG ratio. Four biological replicates were analyzed for each condition.

C. elegans [5] = experiment: NADPH and NADP+ quantification by LC-MS; format: in vivo
Description: To measure NADP^+ and NADPH from C. elegans, 10000-15000 L1 worms were exposed to each condition in duplicates for 3 days and then washed four times with H2O. […] 25 µM solutions of each nucleotide were treated in parallel as standards. Homogenization for 15 min at 4° C. and 300 g was carried out in a TissueLyser II (Qiagen) after adding ⅓ volume of 0.5 mm zirconium beads. The resulting mixture was centrifuged at 13,000 g and the supernatant transferred to a new tube.
LC-MS/MS analysis of the samples was performed on a high-performance liquid chromatography (HPLC) system (1200 Agilent) coupled online to G2-S QTOF (Waters). For normal phase chromatography Bridge Amide 3.5 ml (2.1×100 mm) column from Waters was used. The mobile phase composed of eluent A and eluent B (40% acetonitrile, 0.1 mM ammonium acetate and 0.01% NH40H) was applied with the following gradient program: Eluent B, from 0% to 100% within 18 min; 100% from 18 min to 21 min; 0% from 21 min to 26 min. The flow rate was set at 0.3 ml/min. The spray voltage was set at 3.0 kV and the source temperature was set at 120° C. Nitrogen was used as both cone gas (50 L/h) and desolvation gas (800 L/h), and argon as the collision gas. MS^E mode was used with Bridge Amide 3.5 µl (2.1×100 mm) column in ESI negative ionization polarity for the detection of the nucleosides. Mass chromatograms and mass spectral data were acquired and processed by MassLynx software (Waters). Three and four biological replicates were analyzed for each condition of mel-32 RNAi and EV, respectively.

[6] = system: gox-1, ghpr-1, gcst-1, mel-32 and gcs-1 genes; experiment: Quantitative real-time PCR of glycolate pathway genes; format: in vivo, C. elegans
Description: The differential expression of F41E6.5 (gox-1), C31C9.2 (ghpr-1), gcst-1, mel-32 and gcs-1 genes was measured using qRT-PCR. ˜5000 L1 N2 worms were exposed to each condition for 3 days at 15° Cas described above and then washed three times with H2O. Total RNA was isolated using the RNeasy Mini Kit (Qiagen) and equal amounts of all samples were reverse transcribed with SuperScript Ill (Invitrogen) using oligo(dT) 12-18 primers. cDNA quality was tested using standard PCR. qRT-PCR was performed using pre-designed TaqMan Gene Expression Assay (ThermoFischer Scientific) with at least three samples in triplicates. For the relative quantification of gene expression levels, the 2^−ΔΔCT method and results were normalized to the expression level of the cdc-42 gene. Expression levels were averaged over technical and biological replicates, […]

[7] = 0.25% hydrogen peroxide alone in drinking water
[8] = system: Staphylococcus aureus bacterial culture (ATCC 25923); experiment: Antimicrobial effect on bacterial culture, colony count; format: cell-based; conditions: 2.5% solution
Description: A composition comprising 0.5% Glycine and 0.3% Hydrogen peroxide was prepared on 0.9% sodium chloride solution. Water was sterile purified.
After incubation for 4-5 minutes, sample from each test tube was diluted 1000 times with sterile water, and […] was spread evenly on standard tryptic soy agar petri plate. Plates were incubated at 37° C. for 24 hours and bacterial colonies were counted. As a positive control (100% survival), was taken a sample, where the composition was neutralized by sodium bisulfite instantly (FIG. 10).

Row | Compound | Respiration rate (OCR) (C. elegans [1]) | Growth (C. elegans [2]) | Reproductive capacity (C. elegans [3]; H2O2 alone) | Lifespan (C. elegans [3]; exposed to H2O2 alone during larval stages, then control plates, control worms 18.5+/−1.19 days) | Oxidized form of glutathione (GSSG) (C. elegans [4]; H2O2 alone (100 mM)) | Total glutathione (C. elegans [4]; H2O2 alone (100 mM), 3 days) | GSH/GSSG ratio (C. elegans [4]; H2O2 alone, control 107.5) | Reduction of GSH/GSSG ratio (C. elegans [4]; peroxide alone vs control) | Ratio of NADPH to NADP+ (C. elegans [5]; H2O2 alone (100 mM), 3 days) | Ratio of NADPH to NADP+ (C. elegans [5]; mel-32 knocked down worms, H2O2 alone) | Expression of gcst-1 ([6]; peroxide or glycolate supplementation) | Expression of gox-1, ghpr-1, mel-32 and gcs-1 ([6]; worms exposed to different peroxide concentrations, 3 days) | Effect on weight [7] | Antimicrobial effect of the neutralizer on itself [8]
1 | OO [H2O2, hydrogen peroxide] | decline in the respiration rate | growth delay | reduced reproductive capacity | 5.88 ± 1.47 days | 513 % of the control | 51 % of the control | 11.3 | 10 -fold | significantly decreased | further decline | not significantly altered | significant induction | slight positive effect | 
2 | O=S([O-])O.[Na+] [sodium bisulfite] |  |  |  |  |  |  |  |  |  |  |  |  |  | no antimicrobial effect
